Assay results reported in patent US20080318792A1, “Extension of pollination period” (priority 2007, published 2008).

Columns and labels:
Assay type in all cases: in vivo
[1] = tested on: sweet corn seed (cv. Silver Queen); assay: Germination of sweet corn seed on moist blotters at 15° C. after seed treatment; conditions: blotters 15° C.; for Coleoptile protrusion CGERM / Radicle protrusion RGERM: maximum by day 27
Procedure: ABA acid and three analogs were dissolved in ethanol to produce the desired doses. […] Aliquotes (250 μl) of ethanol solutions of the agents were added to 10 g samples of the seed and the seeds were agitated and dried overnight. Germination tests were conducted on moist blotters at 15° C. in petri dishes. Four replications of 10 seeds each were performed.
Radicle and coleoptile protrusion were counted approximately daily for 27 days. The maximum radical protrusion (RGERM) and maximum coleoptile protrusion (CGERM) were expressed as percentages from each dish. The daily counts were expressed as proportions of the protrusion maxima from each dish, and Gompertz curves were fitted to the protrusion data using SAS Proc NLIN. From the parameters of the models, median time to radicle protrusion (RT50), and median-time-to-coleoptile protrusion (CT50) were estimated for each dish. Analysis of variance was performed and means calculated for each of the four responses (RGERM, CGERM, RT50 and CT50).

[2] = tested on: Hughes 1883 hybrid corn seed; assay: Soil germination/emergence of corn seed treated with different forms of ABA in slurry; conditions: for delay: treatments with ABA vs control; for Final emergence / QR / T50: 25 g/cwt as free acid
Procedure: Three forms of ABA were evaluated in this experiment 1) free acid, 2) ammonium salt, and 3) sodium salt. The cation is referred to as the “counter-ion” below. […] The treatments were made up in 3 ml samples of experimental aqueous seed treatment slurry. All of the seed treatment slurry samples contained CF-Clear film-forming agent and Colorcoat Red (Becker Underwood), each at 1 oz/cwt, and 0.167 oz/cwt Maxim XL fungicide (Syngenta). The slurry application volume was 20 oz/cwt (cwt=100 lbs of seed).
One hundred gram samples of Hughes 1883 hybrid corn seed were treated with the experimental slurries using a Hege 11 seed treater with a six-inch bowl.
The seed was planted in plastic boxes containing 1 kg of typical agricultural silt loam. Fifty seeds were planted 3 cm deep in each plastic box, and the soil in the box was adjusted to 21% soil moisture (wet-weight basis). Two replications of the experiment were incubated under constant light in a 25° C. chamber and two replications incubated under constant light in an 18° C. chamber. The boxes were watered up to the correct weight daily, and checked for emergence. Daily counts of seedlings were continued until emergence ceased. The final count of emerged seedlings was expressed as a percentage of the 50 seeds planted (GERM).
The daily counts were converted to proportions of the final germination of the box, and a Gompertz curve was fitted to the data from each box using SAS Proc NLIN. From the parameters of the model, median germination time (T50) and quartile range (QR) were estimated for each box. Analysis of variance was performed and means calculated for each of the three responses (GERM, T50, QR).

[3] = tested on: corn inbred lines B91 and B95; assay: Field emergence and anthesis of inbred corn seed treated with ABA
Procedure: Seed of inbred lines B91 and B95 was obtained from Iowa State University. These inbreds are from the BSCB1 heterotic group, and are representative of many male parents used in hybrid corn seed production. ABA in the form of the ammonium salt was applied at rates of 0, 25, 50 and 100 g/cwt (as free acid). Application was performed as described under Example 2 above, except the CF-Clear and Color Coat Red (Becker Underwood) were applied at 0.5 oz/cwt, and Maxim XL (Syngenta) was applied at 0.334 oz/cwt, using a slurry rate of 15 oz/cwt. The seed samples were mechanically planted in small plots of one five hundredth acre each at Woodstock, Ill., Stoughton, Wis. and Winnebago, Ill. Three plots of each treatment were planted at each location. Standard cultural practices for corn production were used. The plots were examined daily, and seedling emergence counted in each plot every day or two during the month after planting. Data were analyzed as described under Example 2 above.

[4] = Stoughton, inbred B91, ABA (ammonium salt) 25 g/cwt as free acid
[5] = Stoughton, inbred B91, ABA (ammonium salt) 50 g/cwt as free acid
[6] = Stoughton, inbred B91, ABA (ammonium salt) 100 g/cwt as free acid
[7] = Stoughton, inbred B95, ABA (ammonium salt) 25 g/cwt as free acid
[8] = Stoughton, inbred B95, ABA (ammonium salt) 50 g/cwt as free acid
[9] = Stoughton, inbred B95, ABA (ammonium salt) 100 g/cwt as free acid
[10] = Winnebago, inbred B91, ABA (ammonium salt) 25 g/cwt as free acid
[11] = Winnebago, inbred B91, ABA (ammonium salt) 50 g/cwt as free acid
[12] = Winnebago, inbred B91, ABA (ammonium salt) 100 g/cwt as free acid
[13] = Winnebago, inbred B95, ABA (ammonium salt) 25 g/cwt as free acid
[14] = Winnebago, inbred B95, ABA (ammonium salt) 50 g/cwt as free acid
[15] = Winnebago, inbred B95, ABA (ammonium salt) 100 g/cwt as free acid
[16] = Woodstock, inbred B91, ABA (ammonium salt) 25 g/cwt as free acid
[17] = Woodstock, inbred B91, ABA (ammonium salt) 50 g/cwt as free acid
[18] = Woodstock, inbred B91, ABA (ammonium salt) 100 g/cwt as free acid
[19] = Woodstock, inbred B95, ABA (ammonium salt) 25 g/cwt as free acid
[20] = Woodstock, inbred B95, ABA (ammonium salt) 50 g/cwt as free acid
[21] = Woodstock, inbred B95, ABA (ammonium salt) 100 g/cwt as free acid

In the case of CC1=CC(=O)CC(C)(C)[C@@]1(O)/C=C/C(C)=C\C(=O)O [ABA, S-(+)-abscisic acid], the “Coleoptile protrusion CT50” value ([1]; dose 10 ppm) is reported as 9.70 days, the “Radicle protrusion RT50” value ([1]; dose 10 ppm) is reported as 5.99 days and the “Coleoptile protrusion CGERM” value ([1]; dose 10 ppm) is reported as 80.0%. The “Radicle protrusion RGERM” value ([1]; dose 10 ppm) was 87.5%, the “Coleoptile protrusion CT50” value ([1]; dose 100 ppm) was 12.80 days and the “Radicle protrusion RT50” value ([1]; dose 100 ppm) was 7.28 days. For the same molecule, the “Coleoptile protrusion CGERM” value ([1]; dose 100 ppm) was 65.0%, the “Radicle protrusion RGERM” value ([1]; dose 100 ppm) was 77.5% and the “Coleoptile protrusion CT50” value ([1]; dose 1000 ppm) was 18.44 days. For the same molecule, the “Radicle protrusion RT50” value ([1]; dose 1000 ppm) was 8.58 days, the “Coleoptile protrusion CGERM” value ([1]; dose 1000 ppm) was 22.5% and the “Radicle protrusion RGERM” value ([1]; dose 1000 ppm) was 85.0%. For the same molecule, the “delay as a fraction of the germination time of the control at the same temperature” value ([2]; 18 and 25° C.) was “roughly doubling the time to emergence”, the delay ([2]; 18° C.) was 5.8 days and the Final emergence ([2]; soil 18° C.) was 97%. The QR ([2]; soil 18° C.) was 2.96 days, the T50 ([2]; soil 18° C.) was 11.4 days and the Final emergence ([2]; soil 25° C.) was 96%. For the same molecule, the QR ([2]; soil 25° C.) was 1.32 days, the T50 ([2]; soil 25° C.) was 7.7 days and the delay ([2]; 25° C.) was 4.4 days. The median-time-to-germination ([2]; regardless of counter-ion, 18 and 25° C., p<0.0001) was “increased”, the Quartile range ([2]; regardless of counter-ion, 18 and 25° C., p<0.0002) was “increased” and the effect on anthesis ([3]; Stoughton and Winnebago, ABA 25-100 g/cwt) was “progressively delayed anthesis”. For the same molecule, the Final emergence [3, 4] was 96.2%, the “Median time to anthesis” value [3, 4] was 79.2 days and the “Median time to emergence” value [3, 4] was 11.9 days. The Final emergence [3, 5] was 95.0%, the “Median time to anthesis” value [3, 5] was 80.1 days and the “Median time to emergence” value [3, 5] was 12.6 days. For the same molecule, the Final emergence [3, 6] was 94.3%, the “Median time to anthesis” value [3, 6] was 79.8 days and the “Median time to emergence” value [3, 6] was 14.1 days. For the same molecule, the Final emergence [3, 7] was 98.1%, the “Median time to anthesis” value [3, 7] was 81.8 days and the “Median time to emergence” value [3, 7] was 12.5 days. The Final emergence [3, 8] was 98.1%, the “Median time to anthesis” value [3, 8] was 82.4 days and the “Median time to emergence” value [3, 8] was 14.1 days. The Final emergence [3, 9] was 99.0%, the “Median time to anthesis” value [3, 9] was 81.3 days and the “Median time to emergence” value [3, 9] was 14.3 days. The Final emergence [3, 10] was 98.5%, the “Median time to anthesis” value [3, 10] was 74.4 days and the “Median time to emergence” value [3, 10] was 8.8 days. The Final emergence [3, 11] was 96.4%, the “Median time to anthesis” value [3, 11] was 75.1 days and the “Median time to emergence” value [3, 11] was 9.7 days. The Final emergence [3, 12] was 94.4%, the “Median time to anthesis” value [3, 12] was 76.4 days and the “Median time to emergence” value [3, 12] was 11.5 days. For the same molecule, the Final emergence [3, 13] was 94.8%, the “Median time to anthesis” value [3, 13] was 79.8 days and the “Median time to emergence” value [3, 13] was 10.3 days. For the same molecule, the Final emergence [3, 14] was 95.0%, the “Median time to anthesis” value [3, 14] was 79.5 days and the “Median time to emergence” value [3, 14] was 11.3 days. For the same molecule, the Final emergence [3, 15] was 89.8%, the “Median time to anthesis” value [3, 15] was 80.8 days and the “Median time to emergence” value [3, 15] was 12.7 days. For the same molecule, the Final emergence [3, 16] was 99.0%, the “Median time to emergence” value [3, 16] was 11.4 days and the Final emergence [3, 17] was 94.5%. For the same molecule, the “Median time to emergence” value [3, 17] was 13.7 days, the Final emergence [3, 18] was 92.0% and the “Median time to emergence” value [3, 18] was 14.3 days. The Final emergence [3, 19] was 94.8%, the “Median time to emergence” value [3, 19] was 13.8 days and the Final emergence [3, 20] was 96.8%. The “Median time to emergence” value [3, 20] was 15.3 days, the Final emergence [3, 21] was 89.6% and the “Median time to emergence” value [3, 21] was 18.9 days. The “effect on final stand” value ([3]; any of the locations) was “did not significantly reduce final stand” and the “effect on emergence from the soil” value ([3]; every location, ABA 25-100 g/cwt) was “progressive and significant delay in emergence”.
